# Assay results reported in PubChem BioAssay AID1918956 (Molecular Pharmacology Branch, DTP, NCI, 2023).
# Values joined by “and” are separate entries in the source; they are usually repeats but may differ in a detail not shown here. Equal values may be shown once.
# Test system: OVCAR-5 complex spheroids, viability
# Experiment: Anticancer human tumor OVCAR-5 cell line growth inhibition;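 further: spheroids exposed to agents for seven days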;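 on viability, T/C: 100% = DMSO vehicle control wells viability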
# Settings: for viability, T/C: stronger effect = lower value
# Outline: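 Complex spheroids of tumor cells with HUVEC and human MSCs, exposed to iadademstat combined with other agents. Each agent tested in half-log steps from near clinical Cmax (else 10 microM top), DMSO ≤0.25%.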
# [1] = curve of first compound, second compound 0.1 µM
# [2] = curve of first compound, second compound 0.316 µM
# [3] = curve of first compound, second compound 1 µM
# [4] = curve of first compound, second compound 3.16 µM
# [5] = curve of first compound, second compound 10 µM
# [6] = second compound 0.1 µM, first compound 0.0316 µM
# [7] = second compound 0.1 µM, first compound 0.1 µM
# [8] = second compound 0.1 µM, first compound 0.316 µM
# [9] = second compound 0.1 µM, first compound 1 µM
# [10] = second compound 0.1 µM, first compound 3.16 µM
# [11] = second compound 0.1 µM, first compound 10 µM
# [12] = second compound 0.316 µM, first compound 0.0316 µM
# [13] = second compound 0.316 µM, first compound 0.1 µM
# [14] = second compound 0.316 µM, first compound 0.316 µM
# [15] = second compound 0.316 µM, first compound 1 µM
# [16] = second compound 0.316 µM, first compound 3.16 µM
# [17] = second compound 0.316 µM, first compound 10 µM
# [18] = second compound 1 µM, first compound 0.0316 µM
# [19] = second compound 1 µM, first compound 0.1 µM
# [20] = second compound 1 µM, first compound 0.316 µM
# [21] = second compound 1 µM, first compound 1 µM
# [22] = second compound 1 µM, first compound 3.16 µM
# [23] = second compound 1 µM, first compound 10 µM
# [24] = second compound 3.16 µM, first compound 0.0316 µM
# [25] = second compound 3.16 µM, first compound 0.1 µM
# [26] = second compound 3.16 µM, first compound 0.316 µM
# [27] = second compound 3.16 µM, first compound 1 µM
# [28] = second compound 3.16 µM, first compound 3.16 µM
# [29] = second compound 3.16 µM, first compound 10 µM
# [30] = second compound 10 µM, first compound 0.0316 µM
# [31] = second compound 10 µM, first compound 0.1 µM
# [32] = second compound 10 µM, first compound 0.316 µM
# [33] = second compound 10 µM, first compound 1 µM
# [34] = second compound 10 µM, first compound 3.16 µM
# [35] = second compound 10 µM, first compound 10 µM
compound,measurement,setting,value
CC(C)c1c(-c2ccccc2)nc2c(C#N)c[nH]n2c1=O + NC1CC1c1ccc(-c2cccc(O)c2)cc1,IC50,[1],> 10 µM
same,IC50,[2],> 10 µM
same,IC50,[3],> 10 µM
same,IC50,[4],> 10 µM
same,IC50,[5],> 10 µM
same,"viability, T/C",[6],92.2%
same,"viability, T/C",[7],98.4%
same,"viability, T/C",[8],97.4%
same,"viability, T/C",[9],98.4%
same,"viability, T/C",[10],99.9%
same,"viability, T/C",[11],107%
same,"viability, T/C",[12],98%
same,"viability, T/C",[13],96%
same,"viability, T/C",[14],102%
same,"viability, T/C",[15],102%
same,"viability, T/C",[16],98%
same,"viability, T/C",[17],108%
same,"viability, T/C",[18],87%
same,"viability, T/C",[19],90%
same,"viability, T/C",[20],97.1%
same,"viability, T/C",[21],105%
same,"viability, T/C",[22],96.1%
same,"viability, T/C",[23],104%
same,"viability, T/C",[24],88.3%
same,"viability, T/C",[25],95.4%
same,"viability, T/C",[26],77.8%
same,"viability, T/C",[27],95.6%
same,"viability, T/C",[28],88.8%
same,"viability, T/C",[29],98.9%
same,"viability, T/C",[30],82.2%
same,"viability, T/C",[31],91%
same,"viability, T/C",[32],80.5%
same,"viability, T/C",[33],87.5%
same,"viability, T/C",[34],87.7%
same,"viability, T/C",[35],73.5%
O=C(C=Cc1cccc(S(=O)(=O)Nc2ccccc2)c1)NO,"viability, T/C",compound 0.00949 µM,89.1% and 94.7%
same,"viability, T/C",compound 0.03 µM,88.7% and 80.5%
same,"viability, T/C",compound 0.0949 µM,61.9% and 55.5%
same,"viability, T/C",compound 0.3 µM,31.6% and 27.4%
same,"viability, T/C",compound 0.949 µM,15.4% and 10.4%
same,"viability, T/C",compound 3 µM,4.04% and 2.72%
same,IC50,curve of compound,0.156 µM and 0.118 µM
Nc1ncn(C2CC(O)C(CO)O2)c(=O)n1 (centres undefined),"viability, T/C",compound 0.00316 µM,93.5% and 108%
same,"viability, T/C",compound 0.01 µM,94% and 87.9%
same,"viability, T/C",compound 0.0316 µM,88.2% and 75.7%
same,"viability, T/C",compound 0.1 µM,77.1% and 76.2%
same,"viability, T/C",compound 0.316 µM,72.5% and 69%
same,"viability, T/C",compound 1 µM,72.5% and 69.2%
same,IC50,curve of compound,> 1 µM
CC(C)c1c(-c2ccccc2)nc2c(C#N)c[nH]n2c1=O + NC1CCC(NC2CC2c2ccccc2)CC1,IC50,[1],> 10 µM
same,IC50,[2],> 10 µM
same,IC50,[3],> 10 µM
same,IC50,[4],> 10 µM
same,IC50,[5],> 10 µM
same,"viability, T/C",[6],114%
same,"viability, T/C",[7],124%
same,"viability, T/C",[8],108%
same,"viability, T/C",[9],130%
same,"viability, T/C",[10],113%
same,"viability, T/C",[11],117%
same,"viability, T/C",[12],119%
same,"viability, T/C",[13],122%
same,"viability, T/C",[14],114%
same,"viability, T/C",[15],104%
same,"viability, T/C",[16],118%
same,"viability, T/C",[17],121%
same,"viability, T/C",[18],110%
same,"viability, T/C",[19],105%
same,"viability, T/C",[20],111%
same,"viability, T/C",[21],113%
same,"viability, T/C",[22],115%
same,"viability, T/C",[23],106%
same,"viability, T/C",[24],92.9%
same,"viability, T/C",[25],102%
same,"viability, T/C",[26],108%
same,"viability, T/C",[27],101%
same,"viability, T/C",[28],89.3%
same,"viability, T/C",[29],93.5%
same,"viability, T/C",[30],88.5%
same,"viability, T/C",[31],81.5%
same,"viability, T/C",[32],77.4%
same,"viability, T/C",[33],79.9%
same,"viability, T/C",[34],82.7%
same,"viability, T/C",[35],79.3%
